Patent US9487483B2, “Complement pathway modulators and uses thereof” (priority 2012, dated 2016)

Each compound was assayed against Recombinant human factor D (Homo sapiens (Human), UniProt P00746) (assay: biochemical). Conditions: Factor D inhibition data using Method 1; substrate Z-Lys-thiobenzyl, fluorescence readout; read-out: IC50.
Format: biochemical
Description: Human Complement Factor D Assay: Method 1
Recombinant human factor D (expressed in E. coli and purified using standard methods) at 10 nM concentration is incubated with test compound at various concentrations for 1 hour at room temperature in 0.1 M Hepes buffer, pH 7.5, containing 1 mM MgCl2, 1 M NaCl and 0.05% CHAPS. […] IC50 values are calculated from percentage of inhibition of complement factor D-activity as a function of test compound concentration.

Chain of Recombinant human factor D (P00746 26-253): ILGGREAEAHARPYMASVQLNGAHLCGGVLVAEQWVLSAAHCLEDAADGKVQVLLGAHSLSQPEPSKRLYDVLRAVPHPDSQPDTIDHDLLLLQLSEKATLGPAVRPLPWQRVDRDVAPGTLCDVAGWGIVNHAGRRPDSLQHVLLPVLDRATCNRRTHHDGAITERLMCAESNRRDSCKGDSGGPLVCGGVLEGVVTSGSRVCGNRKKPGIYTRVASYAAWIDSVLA

In order of rising IC50:
1. CC1(C)CCC[C@@H](NC(=O)[C@@H]2C[C@H]3C[C@H]3N2C(=O)Cn2nc(C(N)=O)c3ccc(F)cc32)C1 [Example 60, 1-{2-[(1R,3S,5R)-3-((R)-3,3-Dimethyl-cyclohexylcarbamoyl)-2-aza-bicyclo[3.1.0]hex-2-yl]-2-oxo-ethyl}-6-fluoro-1H-indazole-3-carboxylic acid amide]  22 nM
2. CC1(C)CCC[C@@H](NC(=O)[C@@H]2C[C@H]3C[C@H]3N2C(=O)Cn2nc(C(N)=O)c3ccc(Cl)cc32)C1 [Example 62, 6-Chloro-1-{2-[(1R,3S,5R)-3-((R)-3,3-dimethyl-cyclohexylcarbamoyl)-2-aza-bicyclo[3.1.0]hex-2-yl]-2-oxo-ethyl}-1H-indazole-3-carboxylic acid amide]  24 nM
3. CCc1cc2c(C(N)=O)nn(CC(=O)N3[C@@H]4C[C@@H]4C[C@H]3C(=O)N[C@@H]3CCCC(C)(C)C3)c2cn1 [Example 64, 1-{2-[(1R,3S,5R)-3-((R)-3,3-Dimethyl-cyclohexylcarbamoyl)-2-aza-bicyclo[3.1.0]hex-2-yl]-2-oxo-ethyl}-5-ethyl-1H-pyrazolo[3,4-c]pyridine-3-carboxylic acid amide]  24 nM
4. CC(=O)c1nn(CC(=O)N2[C@@H]3C[C@@H]3C[C@H]2C(=O)N[C@@H]2CCC[C@H](C(F)(F)F)C2)c2ccc(OCc3ncccn3)cc12 [Example 95, (1R,3S,5R)-2-{2-[3-Acetyl-5-(pyrimidin-2-ylmethoxy)-indazol-1-yl]-acetyl}-2-aza-bicyclo[3.1.0]hexane-3-carboxylic acid ((1R,3S)-3-trifluoromethyl-cyclohexyl)-amide]  25 nM
5. CC[C@H]1CCC[C@@H](NC(=O)[C@@H]2C[C@H]3C[C@H]3N2C(=O)Cn2nc(C(N)=O)c3ccncc32)C1 [Example 73, 1-{2-[(1R,3S,5R)-3-((1R,3S)-3-ethyl-cyclohexylcarbamoyl)-2-aza-bicyclo[3.1.0]hex-2-yl]-2-oxo-ethyl}-1H-pyrazolo[3,4-c]pyridine-3-carboxylic acid amide]  29 nM
6. CC1(C)CCC[C@@H](NC(=O)[C@@H]2C[C@@H](F)CN2C(=O)Cn2nc(C(N)=O)c3ccccc32)C1 [Example 82, 1-{2-[(2S,4R)-2-((R)-3,3-Dimethyl-cyclohexylcarbamoyl)-4-fluoro-pyrrolidin-1-yl]-2-oxo-ethyl}-1H-indazole-3-carboxylic acid amide]  38 nM
7. Cc1cc2c(C(N)=O)nn(CC(=O)N3[C@@H]4C[C@@H]4C[C@H]3C(=O)N[C@@H]3CCCC(C)(C)C3)c2cn1 [Example 63, 1-{2-[(1R,3S,5R)-3-((R)-3,3-Dimethyl-cyclohexylcarbamoyl)-2-aza-bicyclo[3.1.0]hex-2-yl]-2-oxo-ethyl}-5-methyl-1H-pyrazolo[3,4-c] pyridine-3-carboxylic acid amide]  49 nM
8. CC[C@H]1CCC[C@@H](NC(=O)[C@@H]2C[C@H]3C[C@H]3N2C(=O)Cn2nc(C(N)=O)c3cc(C)ncc32)C1 [Example 83, 1-{2-[(1R,3S,5R)-3-((1R,3S)-3-Ethyl-cyclohexylcarbamoyl)-2-aza-bicyclo[3.1.0]hex-2-yl]-2-oxo-ethyl}-5-methyl-1H-pyrazolo[3,4-c]pyridine-3-carboxylic acid amide]  50 nM
9. CC1(C)CCC[C@@H](NC(=O)[C@@H]2[C@@H]3C[C@@H]3CN2C(=O)Cn2nc(C(N)=O)c3ccncc32)C1 [Example 86, 1-{2-[(1R,2S,5S)-2-((R)-3,3-Dimethyl-cyclohexylcarbamoyl)-3-aza-bicyclo[3.1.0]hex-3-yl]-2-oxo-ethyl}-1H-pyrazolo[3,4-c]pyridine-3-carboxylic acid amide]  58 nM
10. CO[C@H]1[C@@H](C(=O)N[C@@H]2CCCC(C)(C)C2)N(C(=O)Cn2nc(C(N)=O)c3ccccc32)C[C@@H]1F [Example 84, 1-{2-[(2S,3S,4S)-2-((R)-3,3-Dimethyl-cyclohexylcarbamoyl)-4-fluoro-3-methoxy-pyrrolidin-1-yl]-2-oxo-ethyl}-1H-indazole-3-carboxylic acid amide]  60 nM
11. CC(=O)c1nn(CC(=O)N2[C@@H]3C[C@@H]3C[C@H]2C(=O)N[C@@H]2CCC[C@H](C)C2)c2ccc(OCc3ncccn3)cc12 [Example 96, (1R,3S,5R)-2-{2-[3-Acetyl-5-(pyrimidin-2-ylmethoxy)-indazol-1-yl]-acetyl}-2-aza-bicyclo[3.1.0]hexane-3-carboxylic acid ((1R,3S)-3-methyl-cyclohexyl)-amide]  90 nM
12. CO[C@H]1CCC[C@@H](NC(=O)[C@@H]2C[C@H]3C[C@H]3N2C(=O)Cn2nc(C(C)=O)c3cc(OCc4ncccn4)ccc32)C1 [Example 94, (1R,3S,5R)-2-{2-[3-Acetyl-5-(pyrimidin-2-ylmethoxy)-indazol-1-yl]-acetyl}2-aza-bicyclo[3.1.0]hexane-3-carboxylic acid ((1R,3S)-3-methoxy-cyclohexyl)-amide]  138 nM
13. CO[C@@H]1CCC[C@@H](NC(=O)[C@@H]2C[C@H]3C[C@H]3N2C(=O)Cn2nc(C(C)=O)c3cc(OCc4ncccn4)ccc32)C1 [Example 69, (1R,3S,5R)-2-{2-[3-Acetyl-5-(pyrimidin-2-ylmethoxy)-indazol-1-yl]-acetyl}-2-aza-bicyclo [3.1.0]hexane-3-carboxylic acid ((1R,3R)-3-methoxy-cyclohexyl)-amide]  143 nM
14. CO[C@H]1[C@@H](C(=O)N[C@H]2CCCC(C)(C)C2)N(C(=O)Cn2nc(C(N)=O)c3ccccc32)C[C@@H]1F [Example 85, 1-{2-[(2S,3S,4S)-2-((S)-3,3-Dimethyl-cyclohexylcarbamoyl)-4-fluoro-3-methoxy-pyrrolidin-1-yl]-2-oxo-ethyl}-1H-indazole-3-carboxylic acid amide]  585 nM
15. CC(=O)c1cn(CC(=O)N2[C@@H]3C[C@@H]3C[C@H]2C(=O)N[C@@H]2CCCC(C)(C)C2)c2nnccc12 [Example 66, (1R,3S,5R)-2-[2-(5-Acetyl-pyrrolo[2,3-c]pyridazin-7-yl)-acetyl]-2-aza-bicyclo[3.1.0] hexane-3-carboxylic acid ((R)-3,3-dimethyl-cyclohexyl)-amide]  1210 nM
16. CC[C@@H]1CCC[C@H](NC(=O)[C@@H]2C[C@H]3C[C@H]3N2C(=O)Cn2nc(C(N)=O)c3ccncc32)C1 [Example 72, 1-{2-[(1R,3S,5R)-3-((1S,3R)-3-Ethyl-cyclohexylcarbamoyl)-2-aza-bicyclo[3.1.0]hex-2-yl]-2-oxo-ethyl}-1H-pyrazolo[3,4-c]pyridine-3-carboxylic acid amide]  1700 nM
17. CC1(C)CCC[C@H](NC(=O)[C@@H]2[C@@H]3C[C@@H]3CN2C(=O)Cn2nc(C(N)=O)c3ccncc32)C1 [Example 87, 1-{2-[(1R,2S,5S)-2-((S)-3,3-Dimethyl-cyclohexylcarbamoyl)-3-aza-bicyclo[3.1.0]hex-3-yl]-2-oxo-ethyl}-1H-pyrazolo[3,4-c]pyridine-3-carboxylic acid amide]  6620 nM

Same assay, conditions: read-out: IC50

In order of falling IC50:
1. CC1(C)CCC[C@H](NC(=O)[C@@H]2[C@@H]3C[C@@H]3CN2C(=O)Cn2nc(C(N)=O)c3ccccc32)C1 [Example 89, 1-{2-[(1R,2S,5S)-2-((S)-3,3-Dimethyl-cyclohexylcarbamoyl)-3-aza-bicyclo[3.1.0]hex-3-yl]-2-oxo-ethyl}-1H-indazole-3-carboxylic acid amide]  2130 nM
2. CC1(C)CCC[C@H](NC(=O)[C@@H]2C[C@@H](F)CN2C(=O)Cn2nc(C(N)=O)c3ccncc32)C1 [Example 70, 1-{2-[(2S,4R)-2-((S)-3,3-Dimethyl-cyclohexylcarbamoyl)-4-fluoro-pyrrolidin-1-yl]-2-oxo-ethyl}-1H-pyrazolo[3,4-c]pyridine-3-carboxylic acid amide]  2090 nM
3. CC(=O)c1nn(CC(=O)N2[C@@H]3C[C@@H]3C[C@H]2C(=O)N[C@H]2CCCC(C)(C)C2)c2ccc(OCc3ncccn3)cc12 [Example 97, (1R,3S,5R)-2-{2-[3-Acetyl-5-(pyrimidin-2-ylmethoxy)-indazol-1-yl]-acetyl}-2-aza-bicyclo[3.1.0]hexane-3-carboxylic acid ((S)-3,3-dimethyl-cyclohexyl)-amide]  341 nM
4. CC1=CC(NC(=O)[C@@H]2C[C@H]3C[C@H]3N2C(=O)Cn2nc(C(N)=O)c3ccccc32)CCC1 (stereo partly drawn) [Example 74, 1-{2-[(1R,3S,5R)-3-(3-Methyl-cyclohex-2-enylcarbamoyl)-2-aza-bicyclo[3.1.0]hex-2-yl]-2-oxo-ethyl}-1H-indazole-3-carboxylic acid amide]  132 nM
5. CC1(C)CCC[C@@H](NC(=O)[C@@H]2C[C@@H](F)CN2C(=O)Cn2nc(C(N)=O)c3ccncc32)C1 [Example 71, 1-{2-[(2S,4R)-2-((R)-3,3-Dimethyl-cyclohexylcarbamoyl)-4-fluoro-pyrrolidin-1-yl]-2-oxo-ethyl}-1H-pyrazolo[3,4-c]pyridine-3-carboxylic acid amide]  41 nM
6. CCc1cc2c(C(N)=O)nn(CC(=O)N3C[C@H](F)C[C@H]3C(=O)N[C@@H]3CCCC(C)(C)C3)c2cn1 [Example 81, 1-{2-[(2S,4R)-2-((R)-3,3-Dimethyl-cyclohexylcarbamoyl)-4-fluoro-pyrrolidin-1-yl]-2-oxo-ethyl}-5-ethyl-1H-pyrazolo[3,4-c]pyridine-3-carboxylic acid amide]  39 nM
7. Cc1nccc2c(C(N)=O)nn(CC(=O)N3[C@@H]4C[C@@H]4C[C@H]3C(=O)N[C@@H]3CCCC(C)(C)C3)c12 [Example 65, 1-{2-[(1R,3S,5R)-3-((R)-3,3-Dimethyl-cyclohexylcarbamoyl)-2-aza-bicyclo[3.1.0]hex-2-yl]-2-oxo-ethyl}-7-methyl-1H-pyrazolo[3,4-c]pyridine-3-carboxylic acid amide]  38 nM
8. CC1(C)CCC[C@@H](NC(=O)[C@@H]2[C@@H]3C[C@@H]3CN2C(=O)Cn2nc(C(N)=O)c3ccccc32)C1 [Example 88, 1-{2-[(1R,2S,5S)-2-((R)-3,3-Dimethyl-cyclohexylcarbamoyl)-3-aza-bicyclo[3.1.0]hex-3-yl]-2-oxo-ethyl}-1H-indazole-3-carboxylic acid amide]  34 nM
9. CC(=O)c1nn(CC(=O)N2[C@@H]3C[C@@H]3C[C@H]2C(=O)N[C@@H]2CCCC(C)(C)C2)c2ccc(OCc3ncccn3)cc12 [Example 98, (1R,3S,5R)-2-{2-[3-Acetyl-5-(pyrimidin-2-ylmethoxy)-indazol-1-yl]-acetyl}-2-aza-bicyclo[3.1.0]hexane-3-carboxylic acid ((R)-3,3-dimethyl-cyclohexyl)-amide]  11 nM
